Experimental data from patent US11142505B2, “Compositions for APP-selective BACE inhibition and uses therefor” (The Regents of the University of California, priority 2015, dated 2021).
Where “and” joins values, the source holds several entries; their conditions need not be identical. Equal values may be shown once. Where a name gives a salt, the structure may show the parent alone. Read-outs that look alike come from different tables or passages of the source.

Columns and labels:
[1] = test system: CHO-7W cells that were stably transfected with human APP (wildtype); assay: Secondary cell-based test of APP processing (sAPPalpha, sAPPbeta, Abeta 1-42); details: for sAPP (α/β) / sAPPalpha / sAPPbeta / sAPPα/Aβ / Abeta 1-42: Secondary (1st test, n = 3); for sAPP (α/β) / sAPPα/Aβ: ratio; for sAPPbeta / Abeta 1-42: ↓ decrease; for Aβ1-42 peptide formation, in words: FIG. 1C, FIG. 5B
Excerpt: Cellular Assays: Numerous cell-based assays can be used to evaluate the activity of agent(s) of interest on relative alpha-secretase activity to beta-secretase activity and/or processing of APP to release amyloidogenic versus non-amyloidogenic oligomers.
Relative activity of the alpha-secretase to the beta-secretase can be measured by analysis of one or more cleavage products of the APP substrate. For example, inhibition of beta-secretase activity against the substrate APP would be expected to decrease release of specific beta-secretase induced APP cleavage products such as Aβ (e.g., Aβ40 or Aβ42), sAPPβ and APPneo. Promotion or enhancement of alpha-secretase activity against the substrate APP would be expected to increase release of specific alpha-secretase induced APP cleavage products such as sAPPα and p3 peptide.
In such assays, for example, the cells expressing APP, alpha-secretase and/or beta-secretase are incubated in a culture medium under conditions suitable for alpha-secretase and/or beta-secretase enzymatic activity at its cleavage site on the APP substrate. On exposure of the cells to the agent(s), the amount of Aβ released into the medium and/or the amount of CTF99 fragments of APP in the cell lysates is reduced as compared with the control. The cleavage products of APP can be analyzed, for example, by immune reactions with specific antibodies, as discussed above.

[2] = pharmacokinetics, plasma and brain levels; type: in vivo
Excerpt: As is readily apparent, not all compounds were equally able to cross the blood brain barrier, but most compounds did reach pharmacologically meaningful levels given their low IC50 values. FIG. 5A provides a further exemplary compound (FAH65) and FIG. 5B depicts dose response data for Aβ1-42 production in a cell based system.. Further shown are effects observed with regard to Aβ1-42 production, sAPPβ and sAPPα formation. […] Here, data are presented for oral and subcutaneous administration (SQ) at dosages of 10- and 30 mg/kg. […] Once more, it should be noted that these exemplary compounds are preferential towards APP in BACE inhibition as can be taken from the data for Aβ1-42, sAPPβ, and sAPPα formation.

BACE1 = BACE1 (Homo sapiens (Human), UniProt P56817); assay: in vitro BACE inhibition assay (Primary BACE1 IC50); type: biochemical; details: for BACE activity / IC50 in the BACE assay, in words: FIG. 1B, FIG. 2B
Excerpt: ABBI Assay: APP Binding BACE Inhibitor (ABBI) activity of any of the compounds described herein can readily be verified using, for example, assays described herein. […] In one illustrative embodiment, an MBP-C125 APP695 wt fusion protein can be used as one of the substrates and the second substrate can be the commercially available P5-P5′ fluorescence substrate.

solubility (Sol) = type: physicochemical; details: Table 3
[3] = Table 4, several values in a cell are repeat determinations, read-out: BACE1 IC50
[4] = one cell spans the readout columns

Chain of BACE1 (P56817 46-501): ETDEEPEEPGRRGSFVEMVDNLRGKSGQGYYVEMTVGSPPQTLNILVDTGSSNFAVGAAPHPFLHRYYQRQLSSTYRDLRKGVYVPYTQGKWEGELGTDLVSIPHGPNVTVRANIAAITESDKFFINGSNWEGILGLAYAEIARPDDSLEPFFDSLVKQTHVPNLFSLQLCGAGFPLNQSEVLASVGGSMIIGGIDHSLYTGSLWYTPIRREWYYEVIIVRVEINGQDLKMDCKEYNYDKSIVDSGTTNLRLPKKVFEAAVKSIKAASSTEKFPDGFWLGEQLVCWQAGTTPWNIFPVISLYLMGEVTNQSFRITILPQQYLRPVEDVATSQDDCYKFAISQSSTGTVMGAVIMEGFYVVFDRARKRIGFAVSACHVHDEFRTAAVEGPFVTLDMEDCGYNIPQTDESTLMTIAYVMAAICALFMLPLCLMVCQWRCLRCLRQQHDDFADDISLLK

Row | Compound | sAPP (α/β) ([1]; ↑ increase) | sAPPalpha ([1]; ↑ increase) | sAPPbeta [1] | sAPPα/Aβ ([1]; ↑ increase) | Abeta 1-42 [1] | also measured
1 | Cc1cc(C2(c3cnn(C)c3)N=C(N)N(C)C2=O)ccc1OC(F)F (stereo not drawn) [30 HCl] | ↑≈40% | ↑>10% | ↓>20% | – | – | –
2 | Cc1cc(C2(c3cccc(Cl)c3)N=C(N)N(C)C2=O)ccc1OC(F)F (stereo not drawn) [FAH-23] | ↑>50% | ↑>20% | ↓>20% | ↑>100% | ↓>25% | –
3 | Cc1cc(C2(c3cccc(-c4cncnc4)c3)N=C(N)N(C)C2=O)ccc1OC(F)F (racemic) [FAH-65] | – | – | – | – | – | brain levels / crossing the blood brain barrier, in words ([2]; FIG. 4, FIG. 5C (oral and SQ, 10 and 30 mg/kg)): pharmaceutically meaningful concentrations can be achieved in the brain; Aβ1-42 peptide formation, in words [1]: strongly reduces Aβ1-42 production; preference towards APP in BACE inhibition, in words ([1]; from Aβ1-42, sAPPβ and sAPPα formation): clear preference towards APP in BACE inhibition
4 | COc1cc(C2(c3ccc(OC(F)F)c(C)c3)N=C(N)N(C)C2=O)ccn1 (stereo not drawn) [FAH-48] | ↑≈50% | ↑>10% | ↓>20% | – | ↓≈10% | sAPPα/Aβ ([1]; ↓ (decrease)): ↓>20%
5 | Cc1cc(C2(c3cccc(F)c3)N=C(N)N(Cc3ccccc3)C2=O)ccc1OC(F)F (stereo not drawn) [FAH-42] | ↑>50% | ↑>10% | ↓>30% | unchanged | ↓≈10% | –
6 | Cc1cc(C2(c3cccc(C(F)(F)F)c3)N=C(N)N(C)C2=O)ccc1OC(F)F (stereo not drawn) [FAH-28] | ↑>50% | ↑>20% | ↓>20% | ↑>40% | ↓>20% | –
7 | Cc1cc(C2(c3cccc(-c4cccnc4)c3)N=C(N)N(C)C2=O)ccc1OC(F)F (stereo not drawn) [FAH-32] | ↑>100% | ↑>20% | ↓>30% | ↑>100% | ↓>60% | BACE activity / IC50 in the BACE assay, in words (BACE1): significantly reduced IC50; Cmax brain [2]: <0.02 µM; Aβ1-42 peptide formation, in words [1]: substantially reduced; sAPPα formation, in words ([1]; FIG. 1D, compared to FAH17): increased sAPPα formation as compared to FAH17; sAPPβ formation, in words ([1]; FIG. 1D, compared to FAH17): reduced as compared to FAH17; Sol (solubility (Sol)): Med
8 | COCc1cc(C2(c3ccc(OC(F)F)c(C)c3)N=C(N)N(C)C2=O)ccn1 (stereo not drawn) [FAH-53] | ↑≈50% | ↑>10% | ↓<10% | – | ↓<10% | sAPPα/Aβ ([1]; ↓ (decrease)): ↓≈20%
9 | Cc1cccc(C2(c3ccc(OC(F)F)c(C)c3)N=C(N)N(C)C2=O)c1 (stereo not drawn) [FAH-27] | ↑>100% | ↑>30% | ↓>30% | ↑>100% | ↓>40% | –
10 | Cc1cc(C2(c3cncc(F)c3)N=C(N)N(C)C2=O)ccc1OC(F)F (stereo not drawn) [FAH-37] | ↑>50% | ↑>10% | ↓>20% | – | ↓≈20% | BACE activity / IC50 in the BACE assay, in words (BACE1): less effective in reducing BACE activity in vitro; IC50 (BACE1; [3]): 1930 nM and 2800 nM and 4700 nM; IC50 (BACE1; Tables 1 and 2, read-out: Primary BACE1 IC50): 150 nM; Cmax brain [2]: ~0.11 uM μM; sAPPα/Aβ ([1]; ↓ (decrease)): ↓>40%; Sol (solubility (Sol)): Good
11 | Cc1cc(C2(c3cccc(C4CNC4)c3)N=C(N)N(C)C2=O)ccc1OC(F)CF (stereo not drawn) [FAH-64] | – | – | – | – | – | IC50 (BACE1; [3]): 3200 nM
12 | Cc1cc(C2(c3cc(F)cc(F)c3)N=C(N)N(C)C2=O)ccc1OC(F)F (stereo not drawn) [FAH-03] | ↑≈50% | ↑>10% | ↓>20% | ↑>50% | ↓>20% | –
13 | Cc1cc(C2(c3ccc(OC(F)F)c(C)c3)N=C(N)N(C)C2=O)ccn1 (stereo not drawn) [FAH-47] | ↑>50% | ↑>10% | ↓>20% | – | ↓≈10% | sAPPα/Aβ ([1]; ↓ (decrease)): ↓>20%
14 | Cc1cc(C2(C3CCCCC3)N=C(N)N(C)C2=O)ccc1OC(F)F (stereo not drawn) [FAH-59] | – | – | – | – | – | Secondary (1st test) toxicity [1, 4]: Toxic
15 | Cc1cc(C2(c3ccnc(F)c3)N=C(N)N(C)C2=O)ccc1OC(F)F (stereo not drawn) [FAH-46] | ↑≈10% | ↑>10% | ↓<10% | – | ↓>20% | Cmax brain [2]: ~0.3 µM; sAPPα/Aβ ([1]; ↓ (decrease)): ↓>40%; Sol (solubility (Sol)): Good
16 | Cc1cc(F)cc(C2(c3ccc(OC(F)F)c(C)c3)N=C(N)N(C)C2=O)c1 (stereo not drawn) [FAH-22] | ↑≈50% | ↑>10% | ↓>20% | ↑>100% | ↓>25% | IC50 (BACE1; [3]): 710 nM
17 | Cc1cc(C2(c3cncnc3)N=C(N)N(C)C2=O)ccc1OC(F)F (stereo not drawn) [FAH-33] | ↑≈10% | ↑>10% | Unchanged | ↑>20% | ↓≈10% | –
18 | CNCc1cccc(C2(c3ccc(OC(F)F)c(C)c3)N=C(N)N(C)C2=O)c1 (stereo not drawn) [FAH-62] | ↑≈50% | ↑>10% | ↓>20% | – | ↓<10% | sAPPα/Aβ ([1]; ↓ (decrease)): ↓≈30%; Sol (solubility (Sol)): Good
19 | Cc1cc(C2(c3cccc(-c4cncc(F)c4)c3)N=C(N)N(C)C2=O)ccc1OC(F)F (stereo not drawn) [FAH-66] | – | – | – | – | – | IC50 (BACE1; [3]): 120 nM
20 | CCCC1CC(C2(C3=CC(C)=C(OC(F)F)C(C)C3)N=C(N)N(C)C2=O)CCN1C (stereo not drawn) [FAH-68] | – | – | – | – | – | IC50 (BACE1; [3]): 16100 nM
21 | Cc1cc(C2(c3cocn3)N=C(N)N(C)C2=O)ccc1OC(F)F (stereo not drawn) [FAH-38] | – | – | – | – | – | Secondary (1st test) result across all readouts [1, 4]: unchanged
22 | Cc1cc(C2(c3cccc(F)c3)N=C(N)N(C)C2=O)ccc1OC(F)F (stereo not drawn) [FAH-17] | ↑>100% | ↑>20% | ↓>30% | ↑>100% | ↓>30% | Cmax brain [2]: ~0.3 µM; Sol (solubility (Sol)): Med
23 | Cc1cc(C2(c3cc(F)cc(Cl)c3)N=C(N)N(C)C2=O)ccc1OC(F)F (stereo not drawn) [FAH-25] | ↑≈50% | ↑>10% | ↓>20% | ↑>40% | ↓>20% | –
24 | COCc1cccc(C2(c3ccc(OC(F)F)c(C)c3)N=C(N)N(C)C2=O)c1 (stereo not drawn) [FAH-44] | ↑>100% | ↑>10% | ↓>30% | – | ↓>30% | IC50 (BACE1; Table 3, read-out: IC50): ~250 nM; Cmax brain [2]: ~0.2 µM; sAPPα/Aβ ([1]; ↓ (decrease)): ↓>100%; Sol (solubility (Sol)): Excellent
25 | Cc1cc(C2(C3CCN(C)CC3)N=C(N)N(C)C2=O)ccc1OC(F)CF (stereo not drawn) [FAH-67] | – | – | – | – | – | IC50 (BACE1; [3]): 24200 nM
